How the values were obtained:
Type in all cases: cell-based
[1] = test system: B16F10 (malignant melanoma); assay: Antiproliferative activity, CCK-8 cell viability; details: Mus musculus, B16-F10, 72 h, read-out: Inhibition of Cancerous Cells, B16F10; for inhibition at 3.3 µM: compound concentration of 3.3 μM; for inhibition at 10 µM: compound concentration of 10 μM; for inhibition at 30 µM: compound concentration of 30 μM
How it was run: (§1)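 Cells in DMEM with 10% FBS were treated with compound at 3.3, 10 or 30 μM for 72 h at 37°C. Viability was read by CCK-8 absorbance at 450 nm and expressed relative to DMSO-treated cells. Growth inhibition was binned as ≥50%, 30–50% or <30%.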

[2] = test system: A549 (lung adenocarcinoma); assay: Antiproliferative activity, CCK-8 cell viability; details: Homo sapiens, 72 h, read-out: Inhibition of Cancerous Cells, A549; for inhibition at 3.3 µM: compound concentration of 3.3 μM; for inhibition at 10 µM: compound concentration of 10 μM; for inhibition at 30 µM: compound concentration of 30 μM
HeLa (cervical cancer) = assay: Antiproliferative activity, CCK-8 cell viability; details: Homo sapiens, 72 h, read-out: Inhibition of Cancerous Cells, HELA; for inhibition at 3.3 µM: compound concentration of 3.3 μM; for inhibition at 10 µM: compound concentration of 10 μM; for inhibition at 30 µM: compound concentration of 30 μM
[3] = test system: MDA-MB-231 (breast cancer); assay: Antiproliferative activity, CCK-8 cell viability; details: Homo sapiens, 72 h, read-out: Inhibition of Cancerous Cells, MDA-MB-231; for inhibition at 3.3 µM: compound concentration of 3.3 μM; for inhibition at 10 µM: compound concentration of 10 μM; for inhibition at 30 µM: compound concentration of 30 μM
How it was run: as §1

HepG2 (liver cancer) = assay: Antiproliferative activity, CCK-8 cell viability; details: Homo sapiens, 72 h, read-out: Inhibition of Cancerous Cells, HepG2; for inhibition at 3.3 µM: compound concentration of 3.3 μM; for inhibition at 10 µM: compound concentration of 10 μM; for inhibition at 30 µM: compound concentration of 30 μM
How it was run: as §1

SW480 (colon cancer) = assay: Antiproliferative activity, CCK-8 cell viability; details: Homo sapiens, 72 h, read-out: Inhibition of Cancerous Cells, SW480; for inhibition at 3.3 µM: compound concentration of 3.3 μM; for inhibition at 10 µM: compound concentration of 10 μM; for inhibition at 30 µM: compound concentration of 30 μM
How it was run: as §1

[4] = test system: A431 (epidermoid carcinoma); assay: Antiproliferative activity, CCK-8 cell viability; details: Homo sapiens, A-431, 72 h, read-out: Inhibition of Cancerous Cells, A431; for inhibition at 3.3 µM: compound concentration of 3.3 μM; for inhibition at 10 µM: compound concentration of 10 μM; for inhibition at 30 µM: compound concentration of 30 μM
How it was run: as §1

[5] = test system: alpha-smooth muscle actin (α-SMA); assay: Inhibition of TGF-β induced expression of alpha-smooth muscle actin in CFSC cells (western blot); details: compound at 10 μM, TGF-β (10 ng/mL), 24 hours
How it was run: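 Rat CCl4-treated hepatic stellate (CFSC) cells in serum-free DMEM were given compound at 10 μM plus TGF-β 10 ng/mL for 24 h at 37 °C. α-SMA measured by western blot with β-actin, bands quantified densitometrically. Percent inhibition is the decrease in band intensity versus TGF-β alone.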

## CC1=C(CC(=O)O)c2cc(F)ccc2/C1=C\c1ccc(COc2ccc(F)cc2F)cc1 [Compound A15, 2-[(1Z)-1-({4-[(2,4-Difluorophenoxy)methyl]phenyl}methylidene)-5-fluoro-2-methyl-1H-inden-3-yl]acetic acid]
[1]
  inhibition at 3.3 µM: ≥ 50%
  inhibition at 10 µM: ≥ 50%
  inhibition at 30 µM: ≥ 50%
[2]
  inhibition at 3.3 µM: 30 to 50%
  inhibition at 10 µM: ≥ 50%
  inhibition at 30 µM: ≥ 50%
HeLa (cervical cancer)
  inhibition at 3.3 µM: 30 to 50%
  inhibition at 10 µM: ≥ 50%
  inhibition at 30 µM: ≥ 50%
[3]
  inhibition at 3.3 µM: ≥ 50%
  inhibition at 10 µM: ≥ 50%
  inhibition at 30 µM: ≥ 50%
HepG2 (liver cancer)
  inhibition at 3.3 µM: ≥ 50%
  inhibition at 10 µM: ≥ 50%
  inhibition at 30 µM: ≥ 50%
SW480 (colon cancer)
  inhibition at 3.3 µM: ≥ 50%
  inhibition at 10 µM: ≥ 50%
  inhibition at 30 µM: ≥ 50%
[4]
  inhibition at 3.3 µM: < 30%
  inhibition at 10 µM: < 30%
  inhibition at 30 µM: ≥ 50%
[5]
  inhibition at 10 µM: ≥ 80%

## CC1=C(CC(=O)O)c2cc(F)ccc2/C1=C\c1ccc(CCc2ccccc2)cc1 [Compound A8, 2-[(1Z)-5-Fluoro-2-methyl-1-{[4-(2-phenylethyl)phenyl]methylidene}-1H-inden-3-yl]acetic acid]
[1]
  inhibition at 3.3 µM: < 30%
  inhibition at 10 µM: < 30%
  inhibition at 30 µM: ≥ 50%
[2]
  inhibition at 3.3 µM: < 30%
  inhibition at 10 µM: ≥ 50%
  inhibition at 30 µM: ≥ 50%
HeLa (cervical cancer)
  inhibition at 3.3 µM: < 30%
  inhibition at 10 µM: < 30%
  inhibition at 30 µM: ≥ 50%
[3]
  inhibition at 3.3 µM: 30 to 50%
  inhibition at 10 µM: ≥ 50%
  inhibition at 30 µM: ≥ 50%
HepG2 (liver cancer)
  inhibition at 3.3 µM: 30 to 50%
  inhibition at 10 µM: 30 to 50%
  inhibition at 30 µM: ≥ 50%
SW480 (colon cancer)
  inhibition at 3.3 µM: 30 to 50%
  inhibition at 10 µM: ≥ 50%
  inhibition at 30 µM: ≥ 50%
[4]
  inhibition at 3.3 µM: 30 to 50%
  inhibition at 10 µM: ≥ 50%
  inhibition at 30 µM: ≥ 50%
[5]
  inhibition at 10 µM: ≥ 80%

## CC1=C(CC(=O)N(C)O)c2cc(F)ccc2/C1=C\c1ccc(Oc2ccc(F)cc2)cc1 [Compound B2, 2-[(1Z)-5-Fluoro-1-{[4-(4-fluorophenoxy)phenyl]methylidene}-2-methyl-1H-inden-3-yl]-N-hydroxy-N-methylacetamide]
[1]
  inhibition at 3.3 µM: ≥ 50%
  inhibition at 10 µM: ≥ 50%
  inhibition at 30 µM: ≥ 50%
[2]
  inhibition at 3.3 µM: ≥ 50%
  inhibition at 10 µM: ≥ 50%
  inhibition at 30 µM: ≥ 50%
HeLa (cervical cancer)
  inhibition at 3.3 µM: 30 to 50%
  inhibition at 10 µM: 30 to 50%
  inhibition at 30 µM: ≥ 50%
[3]
  inhibition at 3.3 µM: ≥ 50%
  inhibition at 10 µM: ≥ 50%
  inhibition at 30 µM: ≥ 50%
HepG2 (liver cancer)
  inhibition at 3.3 µM: < 30%
  inhibition at 10 µM: 30 to 50%
  inhibition at 30 µM: ≥ 50%
SW480 (colon cancer)
  inhibition at 3.3 µM: ≥ 50%
  inhibition at 10 µM: ≥ 50%
  inhibition at 30 µM: ≥ 50%
[4]
  inhibition at 3.3 µM: ≥ 50%
  inhibition at 10 µM: ≥ 50%
  inhibition at 30 µM: ≥ 50%
[5]
  inhibition at 10 µM: ≥ 80%

## CC1=C(CC(=O)O)c2cc(F)ccc2/C1=C\c1ccc(Oc2ccc(F)cc2)cc1C [Compound D14, 2-[(1Z)-1-{[2-Methyl-4-(4-fluorophenoxy)phenyl]methylidene}-5-fluoro-2-methyl-1H-inden-3-yl]acetic acid]
[1]
  inhibition at 3.3 µM: ≥ 50%
  inhibition at 10 µM: ≥ 50%
  inhibition at 30 µM: ≥ 50%
[2]
  inhibition at 3.3 µM: 30 to 50%
  inhibition at 10 µM: ≥ 50%
  inhibition at 30 µM: ≥ 50%
HeLa (cervical cancer)
  inhibition at 3.3 µM: < 30%
  inhibition at 10 µM: 30 to 50%
  inhibition at 30 µM: ≥ 50%
[3]
  inhibition at 3.3 µM: 30 to 50%
  inhibition at 10 µM: ≥ 50%
  inhibition at 30 µM: ≥ 50%
HepG2 (liver cancer)
  inhibition at 3.3 µM: 30 to 50%
  inhibition at 10 µM: 30 to 50%
  inhibition at 30 µM: ≥ 50%
SW480 (colon cancer)
  inhibition at 3.3 µM: 30 to 50%
  inhibition at 10 µM: ≥ 50%
  inhibition at 30 µM: ≥ 50%
[4]
  inhibition at 3.3 µM: 30 to 50%
  inhibition at 10 µM: ≥ 50%
  inhibition at 30 µM: ≥ 50%
[5]
  inhibition at 10 µM: ≥ 80%

## CC1=C(CC(=O)NO)c2cc(F)ccc2/C1=C\c1ccc(C(C)(C)C)cc1 [Compound D42, (Z)-2-(1-(4-(Tert-butyl)benzylidene)-5-fluoro-2-methyl-1H-inden-3-yl)-N-hydroxyacetamide]
[1]
  inhibition at 3.3 µM: ≥ 50%
  inhibition at 10 µM: ≥ 50%
  inhibition at 30 µM: ≥ 50%
[2]
  inhibition at 3.3 µM: ≥ 50%
  inhibition at 10 µM: ≥ 50%
  inhibition at 30 µM: ≥ 50%
HeLa (cervical cancer)
  inhibition at 3.3 µM: 30 to 50%
  inhibition at 10 µM: ≥ 50%
  inhibition at 30 µM: ≥ 50%
[3]
  inhibition at 3.3 µM: ≥ 50%
  inhibition at 10 µM: ≥ 50%
  inhibition at 30 µM: ≥ 50%
HepG2 (liver cancer)
  inhibition at 3.3 µM: < 30%
  inhibition at 10 µM: 30 to 50%
  inhibition at 30 µM: ≥ 50%
SW480 (colon cancer)
  inhibition at 3.3 µM: ≥ 50%
  inhibition at 10 µM: ≥ 50%
  inhibition at 30 µM: ≥ 50%
[4]
  inhibition at 3.3 µM: ≥ 50%
  inhibition at 10 µM: ≥ 50%
  inhibition at 30 µM: ≥ 50%
[5]
  inhibition at 10 µM: 50 to 80%

## CC1=C(CC(=O)O)c2cc(F)ccc2/C1=C\c1ccc(Oc2ccc(F)cc2)c(C)c1 [Compound D13, 2-[(1Z)-1-{[3-Methyl-4-(4-fluorophenoxy)phenyl]methylidene}-5-fluoro-2-methyl-1H-inden-3-yl]acetic acid]
[1]
  inhibition at 3.3 µM: ≥ 50%
  inhibition at 10 µM: ≥ 50%
  inhibition at 30 µM: ≥ 50%
[2]
  inhibition at 3.3 µM: 30 to 50%
  inhibition at 10 µM: ≥ 50%
  inhibition at 30 µM: ≥ 50%
HeLa (cervical cancer)
  inhibition at 3.3 µM: < 30%
  inhibition at 10 µM: 30 to 50%
  inhibition at 30 µM: ≥ 50%
[3]
  inhibition at 3.3 µM: < 30%
  inhibition at 10 µM: ≥ 50%
  inhibition at 30 µM: ≥ 50%
HepG2 (liver cancer)
  inhibition at 3.3 µM: 30 to 50%
  inhibition at 10 µM: 30 to 50%
  inhibition at 30 µM: ≥ 50%
SW480 (colon cancer)
  inhibition at 3.3 µM: 30 to 50%
  inhibition at 10 µM: ≥ 50%
  inhibition at 30 µM: ≥ 50%
[4]
  inhibition at 3.3 µM: 30 to 50%
  inhibition at 10 µM: ≥ 50%
  inhibition at 30 µM: ≥ 50%
[5]
  inhibition at 10 µM: < 30%

## CC1=C(CC(=O)O)c2cc(F)cc(F)c2/C1=C/c1ccc(Oc2ccc(F)cc2)cc1 [Compound E4, 2-[(1E)-5,7-Difluoro-2-methyl-1-({4-[4-fluorophenoxy]phenyl}methylidene)-1H-inden-3-yl]acetic acid]
[1]
  inhibition at 3.3 µM: ≥ 50%
  inhibition at 10 µM: ≥ 50%
  inhibition at 30 µM: ≥ 50%
[2]
  inhibition at 3.3 µM: < 30%
  inhibition at 10 µM: 30 to 50%
  inhibition at 30 µM: ≥ 50%
HeLa (cervical cancer)
  inhibition at 3.3 µM: 30 to 50%
  inhibition at 10 µM: ≥ 50%
  inhibition at 30 µM: ≥ 50%
[3]
  inhibition at 3.3 µM: ≥ 50%
  inhibition at 10 µM: ≥ 50%
  inhibition at 30 µM: ≥ 50%
HepG2 (liver cancer)
  inhibition at 3.3 µM: ≥ 50%
  inhibition at 10 µM: ≥ 50%
  inhibition at 30 µM: ≥ 50%
SW480 (colon cancer)
  inhibition at 3.3 µM: < 30%
  inhibition at 10 µM: ≥ 50%
  inhibition at 30 µM: ≥ 50%
[4]
  inhibition at 3.3 µM: < 30%
  inhibition at 10 µM: ≥ 50%
  inhibition at 30 µM: ≥ 50%
[5]
  inhibition at 10 µM: ≥ 80%

## CC1=C(CC(=O)O)c2cc(F)ccc2/C1=C\c1cccc(Oc2ccc(Cl)cc2)c1 [Compound D25, 2-[(1Z)-5-Fluoro-2-methyl-1-({3-[4-chlorophenoxy]phenyl}methylidene)-1H-inden-3-yl]acetic acid]
[1]
  inhibition at 3.3 µM: 30 to 50%
  inhibition at 10 µM: ≥ 50%
  inhibition at 30 µM: ≥ 50%
[2]
  inhibition at 3.3 µM: < 30%
  inhibition at 10 µM: 30 to 50%
  inhibition at 30 µM: ≥ 50%
HeLa (cervical cancer)
  inhibition at 3.3 µM: 30 to 50%
  inhibition at 10 µM: ≥ 50%
  inhibition at 30 µM: ≥ 50%
[3]
  inhibition at 3.3 µM: ≥ 50%
  inhibition at 10 µM: ≥ 50%
  inhibition at 30 µM: ≥ 50%
HepG2 (liver cancer)
  inhibition at 3.3 µM: 30 to 50%
  inhibition at 10 µM: ≥ 50%
  inhibition at 30 µM: ≥ 50%
SW480 (colon cancer)
  inhibition at 3.3 µM: ≥ 50%
  inhibition at 10 µM: ≥ 50%
  inhibition at 30 µM: ≥ 50%
[4]
  inhibition at 3.3 µM: < 30%
  inhibition at 10 µM: < 30%
  inhibition at 30 µM: ≥ 50%
[5]
  inhibition at 10 µM: ≥ 80%

Reference: patent US20240116845A1, “INDENE COMPOUNDS, PHARMACEUTICAL COMPOSITIONS THEREOF, AND THEIR THERAPEUTIC APPLICATIONS” (NucMito Pharmaceuticals Co., Ltd., priority 2021, published 2024)
